Data from ChEMBL document CHEMBL1909046, “DrugMatrix in vitro pharmacology data”.

Experiments:
[1] = target: C-C chemokine receptor type 2 (Homo sapiens, UniProt P41597); assay type: cell membranes, Membrane; conditions: cho-k1; also: in other assays of this panel Not Active means under 50% inhibition at 10 µM
[2] = DRUGMATRIX: GABAA, Muscimol, Central radioligand binding (ligand: [3H] Muscimol); assay type: cell membranes, Rattus norvegicus, Wistar, Brain, Membrane; conditions: Not Active = under 50% inhibition at 10 µM
[3] = target: T1, 3-hydroxy-3-methylglutaryl-coenzyme A reductase (Homo sapiens, UniProt P04035); set-up: species or system Escherichia coli;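 also: enzyme inhibition assay of HMG-CoA reductase using radiolabeled [14C]HMG-CoA as substrate; in other assays of this panel Not Active means under 50% inhibition at 10 µM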
T1 sequence (P04035 whole entry): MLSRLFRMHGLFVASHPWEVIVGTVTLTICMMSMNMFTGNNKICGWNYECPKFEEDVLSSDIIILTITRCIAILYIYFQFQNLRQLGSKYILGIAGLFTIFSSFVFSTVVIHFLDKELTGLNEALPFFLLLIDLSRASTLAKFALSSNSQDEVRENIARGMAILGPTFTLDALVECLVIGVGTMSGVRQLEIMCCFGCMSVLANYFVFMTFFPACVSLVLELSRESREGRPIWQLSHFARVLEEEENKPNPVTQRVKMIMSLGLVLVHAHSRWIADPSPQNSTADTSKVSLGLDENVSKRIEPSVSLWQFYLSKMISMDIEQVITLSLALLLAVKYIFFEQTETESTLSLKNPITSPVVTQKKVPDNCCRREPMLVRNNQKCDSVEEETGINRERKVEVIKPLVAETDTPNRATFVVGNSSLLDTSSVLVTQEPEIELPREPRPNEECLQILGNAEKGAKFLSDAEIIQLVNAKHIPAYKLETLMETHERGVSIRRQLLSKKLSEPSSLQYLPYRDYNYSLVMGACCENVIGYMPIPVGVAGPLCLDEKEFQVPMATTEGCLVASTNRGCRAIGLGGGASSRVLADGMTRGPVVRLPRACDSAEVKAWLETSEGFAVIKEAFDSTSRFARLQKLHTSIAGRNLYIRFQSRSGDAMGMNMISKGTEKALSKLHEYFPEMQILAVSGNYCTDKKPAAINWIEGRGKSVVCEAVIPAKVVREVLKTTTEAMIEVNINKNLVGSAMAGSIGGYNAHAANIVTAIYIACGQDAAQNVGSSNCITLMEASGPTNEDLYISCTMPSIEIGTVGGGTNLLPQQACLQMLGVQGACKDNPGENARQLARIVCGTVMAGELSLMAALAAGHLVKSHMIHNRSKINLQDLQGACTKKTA

[4] = target: T2, Muscarinic acetylcholine receptor M2 (Homo sapiens, UniProt P08172); assay type: cell membranes, CHO-K1, Membrane; also: in other assays of this panel Not Active means under 50% inhibition at 10 µM
T2 sequence (P08172 whole entry): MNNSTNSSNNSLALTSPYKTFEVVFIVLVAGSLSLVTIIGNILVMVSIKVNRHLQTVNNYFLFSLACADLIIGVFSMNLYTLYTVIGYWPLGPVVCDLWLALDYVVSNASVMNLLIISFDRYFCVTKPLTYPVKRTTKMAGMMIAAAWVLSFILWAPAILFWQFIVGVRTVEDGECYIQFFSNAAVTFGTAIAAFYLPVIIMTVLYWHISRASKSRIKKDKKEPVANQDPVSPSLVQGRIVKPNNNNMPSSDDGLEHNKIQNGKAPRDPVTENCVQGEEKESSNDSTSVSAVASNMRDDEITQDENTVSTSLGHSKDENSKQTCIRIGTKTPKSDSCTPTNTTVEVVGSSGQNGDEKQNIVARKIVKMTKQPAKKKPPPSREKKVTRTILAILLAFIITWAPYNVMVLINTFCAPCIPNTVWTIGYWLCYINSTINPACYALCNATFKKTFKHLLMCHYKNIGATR

[5] = target: Platelet-activating factor receptor (Homo sapiens, UniProt P25105); assay type: tissue-based; also: in other assays of this panel Not Active means under 50% inhibition at 10 µM
Platelet-activating factor receptor, sequence (P25105 whole entry): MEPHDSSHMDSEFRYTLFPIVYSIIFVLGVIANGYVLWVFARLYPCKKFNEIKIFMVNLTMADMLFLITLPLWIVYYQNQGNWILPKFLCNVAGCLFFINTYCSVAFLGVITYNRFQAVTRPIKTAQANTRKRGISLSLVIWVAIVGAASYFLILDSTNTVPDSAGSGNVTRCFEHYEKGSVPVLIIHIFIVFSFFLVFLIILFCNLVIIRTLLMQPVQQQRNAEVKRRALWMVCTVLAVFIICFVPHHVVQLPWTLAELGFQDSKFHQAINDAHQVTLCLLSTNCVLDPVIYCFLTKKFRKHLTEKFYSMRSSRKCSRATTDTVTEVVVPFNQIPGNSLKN

Progesterone receptor = target: T3, Progesterone receptor (Bos taurus, UniProt Q690N0); experiment: DRUGMATRIX: Progesterone radioligand binding (ligand: [3H] R-5020); assay type: tissue-based, Uterus; conditions: Not Active = under 50% inhibition at 10 µM
T3 sequence (Q690N0 whole entry): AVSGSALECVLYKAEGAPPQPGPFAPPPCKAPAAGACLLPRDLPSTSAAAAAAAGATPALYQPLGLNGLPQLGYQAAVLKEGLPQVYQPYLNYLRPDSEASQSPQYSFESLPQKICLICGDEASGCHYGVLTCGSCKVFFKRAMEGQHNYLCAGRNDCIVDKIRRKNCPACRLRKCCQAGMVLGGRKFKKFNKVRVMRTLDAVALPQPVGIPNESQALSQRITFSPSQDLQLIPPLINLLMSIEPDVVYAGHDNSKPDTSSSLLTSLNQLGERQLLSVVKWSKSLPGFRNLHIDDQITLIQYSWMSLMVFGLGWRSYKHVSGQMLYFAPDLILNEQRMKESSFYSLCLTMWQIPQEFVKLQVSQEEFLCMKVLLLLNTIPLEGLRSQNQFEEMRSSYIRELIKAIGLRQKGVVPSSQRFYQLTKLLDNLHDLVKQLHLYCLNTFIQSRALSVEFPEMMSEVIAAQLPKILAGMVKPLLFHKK

Cytochrome P450 1A2 = target: T4, Cytochrome P450 1A2 (Homo sapiens, UniProt P05177); conditions: bti-tn-5b1-4; also: in other assays of this panel Not Active means under 50% inhibition at 10 µM
T4 sequence (P05177 whole entry): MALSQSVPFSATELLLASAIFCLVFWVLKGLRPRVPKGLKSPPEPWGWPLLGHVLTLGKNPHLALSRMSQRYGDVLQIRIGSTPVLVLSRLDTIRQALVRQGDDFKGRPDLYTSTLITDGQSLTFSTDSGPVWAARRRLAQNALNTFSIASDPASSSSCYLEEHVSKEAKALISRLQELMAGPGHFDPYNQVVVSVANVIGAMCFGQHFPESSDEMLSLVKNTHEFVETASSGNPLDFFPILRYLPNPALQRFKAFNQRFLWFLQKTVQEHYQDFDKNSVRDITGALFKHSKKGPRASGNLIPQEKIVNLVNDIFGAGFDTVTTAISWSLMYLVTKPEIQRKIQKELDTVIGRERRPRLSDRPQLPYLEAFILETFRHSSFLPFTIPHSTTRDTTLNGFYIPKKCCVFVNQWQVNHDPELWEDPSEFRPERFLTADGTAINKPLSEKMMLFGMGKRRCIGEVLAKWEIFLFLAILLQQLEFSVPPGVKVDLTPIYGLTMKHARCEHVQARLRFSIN

Cytochrome P450 2C9 = Cytochrome P450 2C9 (Homo sapiens, UniProt P11712); conditions: bti-tn-5b1-4; also: in other assays of this panel Not Active means under 50% inhibition at 10 µM
Cytochrome P450 2C9, sequence (P11712 whole entry): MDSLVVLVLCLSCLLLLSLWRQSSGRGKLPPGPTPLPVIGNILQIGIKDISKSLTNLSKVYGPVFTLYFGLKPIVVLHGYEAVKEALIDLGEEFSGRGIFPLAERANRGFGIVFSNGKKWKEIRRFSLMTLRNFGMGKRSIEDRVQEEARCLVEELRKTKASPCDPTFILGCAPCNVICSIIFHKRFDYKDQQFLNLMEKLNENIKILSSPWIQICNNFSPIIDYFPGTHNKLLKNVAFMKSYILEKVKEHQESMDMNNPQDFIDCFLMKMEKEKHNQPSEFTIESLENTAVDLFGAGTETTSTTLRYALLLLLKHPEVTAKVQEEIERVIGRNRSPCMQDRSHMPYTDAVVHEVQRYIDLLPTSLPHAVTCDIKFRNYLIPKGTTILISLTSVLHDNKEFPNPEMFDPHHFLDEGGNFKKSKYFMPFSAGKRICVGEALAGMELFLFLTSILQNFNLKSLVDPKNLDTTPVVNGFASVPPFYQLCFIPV

C-C chemokine receptor type 2, sequence (P41597 whole entry): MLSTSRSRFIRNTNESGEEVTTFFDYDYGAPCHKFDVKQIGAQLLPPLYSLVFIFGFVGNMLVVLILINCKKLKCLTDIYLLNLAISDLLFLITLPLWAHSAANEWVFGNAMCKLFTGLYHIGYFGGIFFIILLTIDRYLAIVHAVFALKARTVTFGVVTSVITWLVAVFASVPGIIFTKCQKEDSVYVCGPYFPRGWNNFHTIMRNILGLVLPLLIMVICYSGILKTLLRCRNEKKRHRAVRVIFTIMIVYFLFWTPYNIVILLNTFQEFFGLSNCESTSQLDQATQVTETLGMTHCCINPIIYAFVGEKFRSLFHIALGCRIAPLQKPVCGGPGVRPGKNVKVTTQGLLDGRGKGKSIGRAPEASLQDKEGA

Row | Compound | IC50 [1] | IC50 [2] | Ki [2] | IC50 [3] | IC50 ([4]; cho-k1) | IC50 [5] | IC50 (Progesterone receptor) | IC50 (Cytochrome P450 1A2) | Ki (Cytochrome P450 1A2) | IC50 (Cytochrome P450 2C9) | Ki (Cytochrome P450 2C9) | IC50 (Progesterone receptor; read-out: IC50) | Ki (Progesterone receptor; read-out: Ki) | IC50 ([4]; read-out: IC50) | Ki ([4]; read-out: Ki)
1 | Cc1c(C)c2c(c(C)c1O)CCC(C)(CN1CCN(c3cc(N4CCCC4)nc(N4CCCC4)n3)CC1)O2 (centres undefined) | Not Active | Not Active | Not Active | Not Active | Not Active | Not Active | Not Active |  |  |  |  |  |  |  | 
2 | COc1ccc(CCN(C)CCCC(C#N)(c2ccc(OC)c(OC)c2)C(C)C)cc1OC (centres undefined) | Not Active | Not Active | Not Active | Not Active | Not Active | Not Active | Not Active | Not Active | Not Active |  |  |  |  |  | 
3 | CC(C)Cc1ccc([C@@H](C)C(=O)O)cc1 [(R)-IBUPROPHEN] | Not Active | Not Active | Not Active | Not Active | Not Active | Not Active | Not Active | Not Active | Not Active | Not Active | Not Active |  |  |  | 
4 | CN(C)CCOC(c1ccccc1)c1ccccc1 [DIPHENHYDRAMINE] | Not Active |  |  | Not Active |  | Not Active | Not Active |  |  |  |  |  |  |  | 
5 | Clc1ccc(COC(Cn2ccnc2)c2ccc(Cl)cc2Cl)cc1 (centres undefined) [ECONAZOLE] | Not Active |  |  | Not Active |  | Not Active |  |  |  |  |  | 10200 nM | 1330 nM |  | 
6 | CCN(CC)CCOc1ccc(/C(=C(/Cl)c2ccccc2)c2ccccc2)cc1 [ENCLOMIPHENE] | Not Active |  |  | Not Active |  | Not Active | Not Active | Not Active | Not Active | Not Active | Not Active |  |  |  | 
7 | Fc1ccc(C(c2ccc(F)cc2)N2CCN(C/C=C/c3ccccc3)CC2)cc1 [FLUNARIZINE] | Not Active |  |  | Not Active | Not Active | Not Active | Not Active | Not Active | Not Active | Not Active | Not Active |  |  |  | 
8 | CNCCC(Oc1ccc(C(F)(F)F)cc1)c1ccccc1 (centres undefined) [FLUOXETINE] | Not Active |  |  | Not Active | Not Active | Not Active | Not Active | Not Active | Not Active | Not Active | Not Active |  |  |  | 
9 | Cc1ccc(NC(=O)c2ccc(CN3CCN(C)CC3)cc2)cc1Nc1nccc(-c2cccnc2)n1 [IMATINIB] | Not Active |  |  | Not Active | Not Active | Not Active | Not Active | Not Active | Not Active | Not Active | Not Active |  |  |  | 
10 | CC(C)Oc1ccc2c(=O)c(-c3ccccc3)coc2c1 [IPRIFLAVONE] | Not Active | Not Active | Not Active | Not Active | Not Active | Not Active | Not Active | Not Active | Not Active | Not Active | Not Active |  |  |  | 
11 | CC(C)NCC(O)c1ccc(O)c(O)c1 (centres undefined) [ISOPROTERENOL] | Not Active | Not Active | Not Active | Not Active | Not Active | Not Active | Not Active | Not Active | Not Active | Not Active | Not Active |  |  |  | 
12 | CNC1(c2ccccc2Cl)CCCCC1=O (centres undefined) [KETAMINE] | Not Active | Not Active | Not Active | Not Active | Not Active | Not Active | Not Active | Not Active | Not Active | Not Active | Not Active |  |  |  | 
13 | N#Cc1ccc(C(c2ccc(C#N)cc2)n2cncn2)cc1 [LETROZOLE] | Not Active | Not Active | Not Active | Not Active | Not Active | Not Active | Not Active |  |  | Not Active | Not Active |  |  |  | 
14 | CCN(CC)CC(=O)Nc1c(C)cccc1C [LIDOCAINE] | Not Active | Not Active | Not Active | Not Active | Not Active | Not Active | Not Active |  |  |  |  |  |  |  | 
15 | COc1c2occc2cc2ccc(=O)oc12 [METHOXSALEN] | Not Active | Not Active | Not Active | Not Active | Not Active | Not Active | Not Active |  |  | Not Active | Not Active |  |  |  | 
16 | CN[C@H]1CC[C@@H](c2ccc(Cl)c(Cl)c2)c2ccccc21 [SERTRALINE] | Not Active |  |  | Not Active |  | Not Active | Not Active | Not Active | Not Active | Not Active | Not Active |  |  | 2770 nM | 984 nM
17 | NC(=O)N1C(=O)/C(=C(\O)c2cccs2)c2cc(Cl)ccc21 [TENIDAP] | Not Active | Not Active | Not Active | Not Active | Not Active | Not Active | Not Active |  |  |  |  |  |  |  | 
18 | COc1cc2nc(N3CCN(C(=O)C4CCCO4)CC3)nc(N)c2cc1OC (centres undefined) [TERAZOSIN] | Not Active | Not Active | Not Active | Not Active | Not Active | Not Active |  | Not Active | Not Active | Not Active | Not Active |  |  |  | 
19 | CCCCNc1ccc(C(=O)OCCN(C)C)cc1 [TETRACAINE] | Not Active | Not Active | Not Active | Not Active | Not Active | Not Active | Not Active |  |  |  |  |  |  |  | 
20 | Cn1c(=O)c2nc[nH]c2n(C)c1=O.O [THEOPHYLLINE] | Not Active | Not Active | Not Active | Not Active | Not Active | Not Active | Not Active | Not Active | Not Active |  |  |  |  |  | 
21 | O=C(Nc1ccc(Br)cc1)c1cc(Br)cc(Br)c1O [TRIBROMSALAN] | Not Active | Not Active | Not Active | Not Active | Not Active | Not Active | Not Active |  |  |  |  |  |  |  | 
